The source of these data is patent US10975068B2, “6-aminopyridin-3-yl thiazoles as modulators of RORγT” (Janssen Pharmaceutica NV, priority 2016, dated 2021).

Molecules are shown by their SMILES. Where two headings read alike, the source gives them in different places.

Test [1] deals with human RORγt ligand binding domain (RORγt LBD) (Homo sapiens (Human), UniProt P51449). Put plainly: RORγt ThermoFluor® assay (thermal shift binding). To be noted: read-out: ThermoFluor® Assay, Kd. From the text:
ThermoFluor® is a fluorescence based assay that estimates ligand binding affinities by measuring the effect of a ligand on protein thermal stability (Pantoliano, M. W., Petrella, E. C., Kwasnoski, J. D., Lobanov, V. S., Myslik, J., Graf, E., Carver, T., Asel, E., Springer, B. A., Lane, P., and Salemme, F. R. (2001) High-density miniaturized thermal shift assays as a general strategy for drug discovery. J Biomol Screen 6, 429-40, and Matulis, D., Kranz, J. K., Salemme, F. R., and Todd, M. J. (2005) Thermodynamic stability of carbonic anhydrase: measurements of binding affinity and stoichiometry using ThermoFluor. Biochemistry 44, 5258-66). This approach is applicable to a wide variety of systems, and rigorous in theoretical interpretation through quantitation of equilibrium binding constants (KD).
The shift in the melting point described as a ΔTm is proportional to the concentration and affinity of the ligand. The compound potency may be compared as a rank order of either ΔTm values at a single compound concentration or in terms of KD values, estimated from concentration response curves.
RORγt ThermoFluor® Assay Construct
For the RORγt construct used in the ThermoFluor® assay, numbering for the nucleotide sequences was based on the reference sequence for human RORγt, transcript variant 2, NCBI Accession: NM_001001523.1 (SEQ ID NO:1). Nucleotides 850-1635 (SEQ ID NO:2) coding for the wild type human RORγt ligand binding domain (RORγt LBD) were cloned into the pHIS1 vector, a modified pET E. coli expression vector (Accelagen, San Diego), containing an in-frame N-terminal His-tag and a TurboTEV protease cleavage site (ENLYFQG, SEQ ID NO:3) upstream of the cloned insert sequence. The amino acid sequence for the RORγt construct used in the Thermofluor® assay is shown as SEQ ID NO:4.
ThermoFluor® experiments were carried out using instruments owned by Janssen Research and Discovery, L.L.C. through its acquisition of 3-Dimensional Pharmaceuticals, Inc. 1,8-ANS (Invitrogen) was used as a fluorescent dye. Protein and compound solutions are dispensed into black 384-well polypropylene PCR microplates (Abgene) and overlayed with silicone oil (1 μL, Fluka, type DC 200) to prevent evaporation.
Bar-coded assay plates are robotically loaded onto a thermostatically controlled PCR-type thermal block and then heated at a typical ramp-rate of 1° C./min for all experiments. Fluorescence was measured by continuous illumination with UV light (Hamamatsu LC6) supplied via fiber optic and filtered through a band-pass filter (380-400 nm; >6 OD cutoff). Fluorescence emission of the entire 384-well plate was detected by measuring light intensity using a CCD camera (Sensys, Roper Scientific) filtered to detect 500±25 nm, resulting in simultaneous and independent readings of all 384 wells. Images were collected at each temperature, and the sum of the pixel intensity in a given area of the assay plate was recorded versus temperature. Reference wells contained RORγt without compounds, and the assay conditions were as follows: • 0.065 mg/mL RORγt • 60 μM 1,8-ANS • 100 mM Hepes, pH 7.0 • 10 mM NaCl • 2.5 mM GSH • 0.002% Tween-20
Project compounds were arranged in a pre-dosed mother plate (Greiner Bio-one) wherein compounds are serially diluted in 100% DMSO by 1:2 from a high concentration of 10 mM over 12 columns within a series (column 12 is a reference well containing DMSO, no compound). The compounds were robotically dispensed directly into assay plates (×=46 nL) using a Hummingbird capillary liquid handling instrument (Digilab). Following compound dispense, protein and dye in buffer was added to achieve the final assay volume of 3 μL, followed by 1 μL of silicone oil.
On the technique in general: Differential scanning fluorimetry follows unfolding on heating by fluorescence.

The next test concerns the target full-length human RORγt (Homo sapiens (Human), UniProt P51449). The test is described as follows: RORγt (full-length human) reporter assay, Conditions B or C. The class given is cell-based. To be noted: for inhibition at 3 µM: at 3 μM compound concentration; for RORγt (FL) Reporter Assay B or C, % inhibition (value marked *): marked *: footnote not given. From the text:
RORγt (Full-Length Human) Reporter Assay:
Cells used in this assay were transiently co-transfected with three different plasmids, one expressing the GAL4-DNA binding domain (DBD)-RORγt fusion protein under control of a CMV promoter (NH2-Gal4-DBD:RORC-COOH in pCMV-BD, Stratagene #211342), and two reporter plasmids—the firefly luciferase reporter under control of a GAL4 promoter (pFR-Luc 2×GAL4) and Renilla luciferase reporter under control of CMV promoter (pRL-CMV, Promega # E2261). The full-length coding sequence was used for human RORγt, i.e., nucleotides 142-1635 of human RORγt, transcript variant 2, NCBI Accession: NM_001001523.1 (SEQ ID NO:1). HEK293T cells were plated at 35,000 per well in 96-well plate in medium of DMEM with 10% FBS. After 18-22 hours incubation, the transfection was carried out by using a PEI solution with 170.5 ng total DNA/well (50 ng pCMV-BD-ROR plus 20 ng of pFR-Luc reporter and 0.5 ng of pRL-CMV reporter plus 100 ng Carrier DNA (Clontech #630440) for each well). 4-6 hours after transfection, cells were treated with compounds for overnight in the medium with final concentration of FBS 1.3% and DMSO 0.1%. After overnight (16 to 20 hours) incubation, media were removed and cells were lysed with 50 μL Glo Lysis Buffer (Promega) for 10-15 minutes followed by 10 minute incubation with 50 μL Dual Glo reagent (Promega) at room temperature. Firefly luciferase luminescence was measured using a BMG Pherastar plate reader. To each well, 50 μL Stop and Glo reagent was added and incubated for 10 minutes at room temperature. Renilla luminescence was measured using a BMG Pherastar plate reader. To calculate the effect of compounds on RORγt activity, firefly values were normalized against values of DMSO only and values of reference compound at saturating concentration, then further normalized against Renilla signals. IC50s were generated by plotting final Renilla normalized data against compound concentration and percent inhibition was calculated against DMSO control.
Cells used in this assay were transiently co-transfected with three different plasmids, one expressing the GAL4-DNA binding domain (DBD)-RORγt fusion protein under control of a CMV promoter (NH2-Gal4-DBD:RORC-COOH in pCMV-BD, Stratagene #211342), and two reporter plasmids—the firefly luciferase reporter under control of a GAL4 promoter (pFR-Luc 2×GAL4) and Renilla luciferase reporter under control of CMV promoter (pRL-CMV, Promega # E2261). The full-length coding sequence was used for human RORγt, i.e., nucleotides 142-1635 of human RORγt, transcript variant 2, NCBI Accession: NM_001001523.1 (SEQ ID NO:1). HEK293T cells were plated at 8750 cells per well in 384-well plate in medium of DMEM with 10% FBS. After 18-22 hours incubation, the transfection was carried out by using a PEI solution with 42.6 ng total DNA/well (12.5 ng pCMV-BD-ROR plus 5 ng of pFR-Luc reporter and 0.125 ng of pRL-CMV reporter plus 25 ng Carrier DNA (Clontech #630440) for each well). 4-6 hours after transfection, cells were treated with compounds for overnight in the medium with final concentration of FBS 1.3% and DMSO 0.1%. After overnight (16 to 20 hours) incubation, media were removed and cells were lysed with 20 μL Glo Lysis Buffer (Promega) for 10-15 minutes followed by 10 minute incubation with 20 μL Dual Glo reagent (Promega) at room temperature. Firefly luciferase luminescence was measured using a BMG Pherastar plate reader. To each well, 20 μL Stop and Glo reagent was added and incubated for 10 minutes at room temperature. Renilla luminescence was measured using a BMG Pherastar plate reader. To calculate the effect of compounds on RORγt activity, firefly values were normalized against values of DMSO only and values of reference compound at saturating concentration, then further normalized against Renilla signals.
On the technique in general: A reporter such as luciferase makes a cellular process visible.

[2] abbreviates: read-out: RORγt (FL) Reporter Assay B or C, % inhibition.
Setting [3] is: read-out: RORγt (FL) Reporter Assay B or C, IC50.
[4] abbreviates: Conditions B or C, read-out: RORγt (FL) Reporter Assay B or C, IC50.

full-length human RORγt, sequence (P51449 other isoform, or with tags, fused parts or gaps): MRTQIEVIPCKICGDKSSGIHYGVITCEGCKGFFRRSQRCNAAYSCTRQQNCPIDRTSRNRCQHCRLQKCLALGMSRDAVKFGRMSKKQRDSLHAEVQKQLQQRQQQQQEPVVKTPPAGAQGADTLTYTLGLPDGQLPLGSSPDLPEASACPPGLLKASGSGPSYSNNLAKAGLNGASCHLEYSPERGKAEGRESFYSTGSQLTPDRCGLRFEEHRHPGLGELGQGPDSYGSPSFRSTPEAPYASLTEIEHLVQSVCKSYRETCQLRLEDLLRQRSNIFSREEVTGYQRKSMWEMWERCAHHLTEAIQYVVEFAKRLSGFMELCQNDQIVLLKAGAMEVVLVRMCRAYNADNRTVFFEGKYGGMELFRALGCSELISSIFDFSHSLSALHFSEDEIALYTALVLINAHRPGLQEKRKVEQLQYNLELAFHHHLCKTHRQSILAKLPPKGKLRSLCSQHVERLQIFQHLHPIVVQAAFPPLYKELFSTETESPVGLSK
human RORγt ligand binding domain (RORγt LBD), sequence (P51449 other isoform, or with tags, fused parts or gaps): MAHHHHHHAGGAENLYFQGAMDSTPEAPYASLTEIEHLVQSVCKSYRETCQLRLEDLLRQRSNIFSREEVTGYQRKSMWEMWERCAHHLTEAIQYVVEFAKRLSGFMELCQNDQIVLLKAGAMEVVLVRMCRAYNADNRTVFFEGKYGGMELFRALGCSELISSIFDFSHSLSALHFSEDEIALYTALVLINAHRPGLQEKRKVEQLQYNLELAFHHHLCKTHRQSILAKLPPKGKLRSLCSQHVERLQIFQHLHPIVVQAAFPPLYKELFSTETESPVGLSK

By Kd is commonly meant the constant that tells how readily two partners part at equilibrium. In general, inhibition refers to the change of the read-out against control, counted positive when it falls. A word on the IC50: it is the concentration that gives 50% inhibition. In the case of `C[C@H](NC(=O)c1nc(C(=O)N2CCC[C@@H]2C)c(-c2cnc(N[C@H](C3CC3)C(F)(F)F)cc2C(F)F)s1)C(C)(C)O` [Example 333, 5-(6-(((R)-1-Cyclopropyl-2,2,2-trifluoroethyl)amino)-4-(difluoromethyl)pyridin-3-yl)-N—((S)-3-hydroxy-3-methylbutan-2-yl)-4-((S)-2-methylpyrrolidine-1-carbonyl)thiazole-2-carboxamide], the Kd in test [1] is 0.78 nM. Moreover, the inhibition at 3 µM at full-length human RORγt (setting [2]) was found to be 98%. Further, at full-length human RORγt (setting [3]), the IC50 worked out at 30 nM.

Consider `CC[C@H](Nc1cc(C(F)(F)F)c(-c2sc(C(=O)NCC(C)(C)O)nc2C(=O)N2CCCC[C@@H]2C)cn1)C(F)(F)F` [Example 112, N-(2-Hydroxy-2-methylpropyl)-4-((S)-2-methylpiperidine-1-carbonyl)-5-(6-(((S)-1,1,1-trifluorobutan-2-yl)amino)-4-(trifluoromethyl)pyridin-3-yl)thiazole-2-carboxamide], for which the Kd in test [1] was 0.2 nM. For the same compound, the “RORγt (FL) Reporter Assay B or C, % inhibition (value marked *)” value (“RORγt … % inhibition (value marked *)” for short) on full-length human RORγt (Conditions B or C) is 110* %. The IC50 at full-length human RORγt (setting [4]) was found to be 13 nM.

`CC[C@H](Nc1cc(C(F)F)c(-c2sc(C(=O)N[C@@H]3CC[C@@H]3O)nc2C(=O)N2CCC[C@@H]2C)cn1)C(F)(F)F` (relative stereo) [Example 381, 5-(4-(Difluoromethyl)-6-(((S)-1,1,1-trifluorobutan-2-yl)amino)pyridin-3-yl)-N-((1R*,2S*)-2-hydroxycyclobutyl)-4-((S)-2-methylpyrrolidine-1-carbonyl)thiazole-2-carboxamide]: the Kd in test [1] is 6.7 nM. Besides, at full-length human RORγt (setting [2]), the inhibition at 3 µM was found to be 107%. At full-length human RORγt (setting [3]), the concentration for half-maximal inhibition (IC50) stood at 12 nM.

For `CC(C)(C)Nc1cc(C(F)F)c(-c2sc(C(=O)N[C@@H]3CC[C@@H](O)C3)nc2C(=O)N2C3CCC2CC3)cn1` [Example 430, 4-((1s,4s)-7-Azabicyclo[2.2.1]heptane-7-carbonyl)-5-[6-(tert-butylamino)-4-(difluoromethyl)-3-pyridyl]-N-[(1R,3R)-3-hydroxycyclopentyl]thiazole-2-carboxamide], the Kd in test [1] is 0.6 nM. At full-length human RORγt (RORγt (FL) Reporter Assay B or C, IC50), this compound came in with an IC50 of 13 nM. Further, the inhibition at 1 µM at full-length human RORγt (at 1 μM compound concentration, read-out: RORγt (FL) Reporter Assay B or C, % inhibition) was determined as 130%.

For `CC[C@H](Nc1cc(C(F)F)c(-c2sc(C(=O)N[C@@H]3C[C@H]3O)nc2C(=O)N2CCC[C@@H]2C)cn1)C(F)(F)F` (relative stereo) [Example 213, 5-(4-(Difluoromethyl)-6-(((S)-1,1,1-trifluorobutan-2-yl)amino)pyridin-3-yl)-N-((1R*,2R*)-2-hydroxycyclopropyl)-4-((S)-2-methylpyrrolidine-1-carbonyl)thiazole-2-carboxamide], in test [1], the Kd was found to be 6.1 nM. Besides, the “RORγt … % inhibition (value marked *)” value at full-length human RORγt (Conditions B or C) is on record as 103* %. Moreover, the IC50 at full-length human RORγt (setting [4]) amounted to 19 nM.

Turning to `CC[C@H](Nc1cc(C(F)F)c(-c2sc(C(=O)N[C@@H]3CCC[C@H]3O)nc2C(=O)N2C3CCC2CC3)cn1)C(F)(F)F` [Example 225, 4-((1s,4s)-7-Azabicyclo[2.2.1]heptane-7-carbonyl)-5-(4-(difluoromethyl)-6-(((1S)-1-(trifluoromethyl)propyl)amino)-3-pyridyl)-N-((1R,2R)-2-hydroxycyclopentyl)thiazole-2-carboxamide], in test [1], the Kd is 0.95 nM. The “RORγt … % inhibition (value marked *)” value at full-length human RORγt (Conditions B or C) is 110* %. At full-length human RORγt (setting [4]), the IC50 came out at 6.8 nM.

With `CC[C@H](Nc1cc(C(F)F)c(-c2sc(C(=O)N3CC4(CCO4)C3)nc2C(=O)N2CCC[C@@H]2C)cn1)C(F)(F)F` [Example 385, [5-[4-(Difluoromethyl)-6-[[(1S)-1-(trifluoromethyl)propyl]amino]-3-pyridyl]-2-(3-oxa-6-azaspiro[3.3]heptane-6-carbonyl)thiazol-4-yl]-[(2S)-2-methylpyrrolidin-1-yl]methanone], the Kd in test [1] is 100 nM. Besides, the inhibition at 3 µM on full-length human RORγt (setting [2]) turned out to be 95%. Further, at full-length human RORγt (setting [3]), the IC50 was determined as 350 nM.
